Measured values as given in ChEMBL document CHEMBL1817599, “Inhibition of LuxS by S-ribosylhomocysteine analogues containing a [4-aza]ribose ring” (Bioorg Med Chem, 2011).
Calls of active or inactive are those of the source. The calls are words filed in the database; no cut-off is given here.

Columns and labels:
[1] = molecular target: T1, S-ribosylhomocysteine lyase (Bacillus subtilis (strain 168)) (UniProt O34667); assay: Inhibition of Bacillus subtilis LuxS preincubated for 15 mins by UV-vis spectrophotometric analysis
T1 sequence (whole entry): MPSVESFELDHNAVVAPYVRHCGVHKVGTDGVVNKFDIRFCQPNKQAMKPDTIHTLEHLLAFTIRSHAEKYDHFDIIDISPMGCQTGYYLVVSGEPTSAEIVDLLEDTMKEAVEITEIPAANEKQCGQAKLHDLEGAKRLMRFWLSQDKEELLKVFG

[2] = molecular target: T1, S-ribosylhomocysteine lyase (Bacillus subtilis (strain 168)); assay: Competitive inhibition of Bacillus subtilis LuxS preincubated for 15 mins by UV-vis spectrophotometric analysis
[3] = molecular target: T1, S-ribosylhomocysteine lyase (Bacillus subtilis (strain 168)); assay: Inhibition of Bacillus subtilis LuxS at 20 to 50 uM by UV-vis spectrophotometric analysis; details: TDE = time-dependent effect
[4] = molecular target: T1, S-ribosylhomocysteine lyase (Bacillus subtilis (strain 168)); assay: Competitive inhibition of Bacillus subtilis LuxS preincubated for 30 mins by UV-vis spectrophotometric analysis
[5] = molecular target: T2, S-ribosylhomocysteine lyase (Bacillus subtilis (strain 168), UniProt O34667); assay: as above
T2 sequence (O34667 whole entry): T1 sequence (whole entry)

| inhibition [1] | SMILES | also measured |
| --- | --- | --- |
| inactive | N[C@@H](CCSC[C@@H]1[C@@H](O)[C@@H](O)C(=O)N1Cc1ccccc1)C(=O)O | – |
| – | N[C@@H](CCSC[C@H]1NC[C@H](O)[C@@H]1O)C(=O)O | inhibition [2]: Dose-dependent effect |
| – | N[C@@H](CCSC[C@H]1NC(O)[C@H](O)[C@@H]1O)C(=O)O (mixture of isomers) | inhibition [3]: tde; Ki [4]: 3.5 µM; IC50 [5]: 60 µM |
| inactive | CC1=N[C@H](CSCCC(N)C(=O)O)[C@@H](O)[C@H]1O (mixture of isomers) | – |
| inactive | CCCSC[C@@H]1CCC(O)N1 (mixture of isomers) | – |
| inactive | NC(CCSC[C@@H]1CCC(=O)N1)C(=O)O (mixture of isomers) | – |
| inactive | N[C@@H](CCSC[C@@H]1CCC(O)N1)C(=O)O (mixture of isomers) | – |
